Experimental data reported in patent publication US9078907B2, “Immunoregulator compounds” (Universita Degli Studi Di Roma “Tor Vergata”, priority 2001, dated 2015).

Legend:
Mycobacterium smegmatis = assay: Colony forming units of M. smegmatis in differentiated THP-1 cells; type: cell-based; conditions: THP-1, M. smegmatis, S1P 5 μM; ethanol 0.3%, 0.03%, 0.003% (dose dependent) or calphostin C 10 nM
Description: Human monocytic THP-1 leukemia line cells were used in this example as a model for macrophage response. In order to obtain macrophage phenotype, 5×10^5/ml THP-1 cells were induced to differentiate by 48 hours incubation in the presence of 20 ng/ml Phorbol Myristate Acetate (PMA). Differentiated THP-1 cells (dTHP-1) were then centrifuged three times and suspended in complete medium [RPMI 1640 (Gibco BRL) supplemented with 10% fetal bovine serum (Gibco BRL), 5 mM L-glutamine (Invitrogen), 1 mM sodium pyruvate (Gibco BRL) and non-essential amino acids (Euroclone)]. dTHP-1 were then infected for 3 hours with M. smegmatis at the multiplicity of infection of bacterium/cell 50:1. Following infection cells were washed three times with RPMI 1640 and incubated in complete medium at 37° C. for further 1, 12 and 24 hours in the presence or absence of sphingosine-1 phosphate used at the concentration of 5 μM.
In order to assess the role of macrophage PLD activity in sphingosine 1-phosphate induced mycobacterial growth control, following the infection the cells were cultured in the presence of various concentrations of ethanol (0.3%, 0.03%, 0.003%) or 10 nM calphostin C. […] Inhibiting activity of calphostin C is exploited by targeting PLD catalytic domain (Sciorra V. A., Hammond S. M., Morris A. J. Potent direct inhibition of mammalian phospholipase D isoenzymes by calphostin c. Biochemistry 2001; 40: 2640-46). Just after the infection and at the indicated time points, cells were 1) lysed using cold PBS containing 0.1% saponin (Sigma, MA, USA), ii) serially diluted in PBS containing 0.01% Tween-80 (Merck, Darmstadt, Germany) and iii) plated in triplicate in Middlebrook 7H10 medium (Becton Dickinson, MD, USA) supplemented with 10% OADC formulation (0.5 mg/ml oleic acid, 50 mg/ml albumin, 20 mg/ml dextrose, 0.04 mg/ml catalase and 8.5 mg/ml sodium chloride). M. smegmatis colonies were enumerated after incubation for 3 days at 37° C.

macrophage PLD = type: cell-based, human
macrophages = assay: ROI generation by dichlorofluorescein (DCF) flow cytometry; type: cell-based, human; conditions: lipopolysaccharide stimulated cells, positive control
Description: Because dichloro fluorescein (DCF) is a fluorochrome obtained from reaction of non fluorescent 2, 7-dichloro fluorescein diacetate (DCFH) with various oxidants, analysis thereof is used to detect cellular oxidative stress and amount of oxygen reactive intermediates (ROI) produced by phagocytic cells. In the used model, this analysis is employed in order to monitor the D-erythro-sphingosine 1-phosphate (S1P) modulated ROI production from macrophages. Macrophages were incubated for 90 minutes with sphingosine 1-phosphate at 0.5 μM, 5 μM, 10 μM and 50 μM concentrations. After the incubation 100 μl of 0.4 μM DCFH (Calbiochem) were added and incubated for at least 30 minutes. Finally, cells were washed with PBS and analysed using FACScan flow cytometer from Becton Dickinson.

Compound: CCO [ethanol]
- mycobacterial replication after PLD inhibitor treatment of S1P treated cells (Mycobacterium smegmatis): increase

Compound: IFN-γ
- effect of IFN-γ pre-treatment on PLD activity of infected macrophages (macrophage PLD): does not modify
- effect of IFN-γ treatment before and/or after infection on levels of macrophage PLD activity (macrophage PLD): does not appear to modify

Compound: calphostin C
- mycobacterial replication after PLD inhibitor treatment of S1P treated cells (Mycobacterium smegmatis): increase

Compound: lipopolysaccharides [reference compound]
- DCF positive cells after stimulation (macrophages): increase
